The target of this test is T1, apoTf (Homo sapiens, UniProt P02787).
T1 construct: purchased Sigma-Aldrich T2036
Description: Fluorescence lifetime (TCSPC) of InQ3 in the presence of apoTf. The conditions noted are these: in the presence of 0.1 – 0.3 equiv. apoTf, after 1 min waiting time. Type of test: binding. As for the experimental part: Therefore, UV–vis and fluorescence emission spectra of InQ3 were recorded in the presence of increasing amounts of apoTf (Fig. 5a, b). After a short initial phase, the absorbance band of InQ3 is reduced gradually by the addition of the protein, while the development of the new band at lower wavelengths (at ca. 310 nm) refers to the liberation of HQ. Namely, there is a competition for In(III) ion between the ligand and the iron-binding sites of apoTf. Absorbance values depicted at 370 nm and 310 nm (Fig. 5c) saturate roughly to the corresponding values of the free ligand and outline a sigmoidal shape. Fluorescence intensity of the same sample set (Fig. 5b, d) was enhanced and moderately blue shifted (from λmax = 540 nm to 532 nm) until the addition of ca. 0.2 equiv. apoTf. […] Then, by the addition of more apoTf, intensities decreased and λmax shifted further to shorter wavelengths (527 nm). […] This is further supported by fluorescence lifetime measurements; where new lifetime components τ3 = 4.7 ± 0.2 ns and τ4 = 13.8 ± 0.4 ns appeared for InQ3 in the presence of 0.1 – 0.3 equiv. apoTf (after 1 min waiting time). […] Here, the sigmoid shape of the UV–vis absorbance was seen again (Fig. S5) and the shifted inflection point in comparison to the titration with apoTf underlines the lower In(III) binding capacity of Tf. […]

Experimental findings from publication PMC8960621, “Solution speciation and human serum protein binding of indium(III) complexes of 8-hydroxyquinoline, deferiprone and maltol” (Journal of Biological Inorganic Chemistry, 2022) are described below.

T1 sequence (P02787 20-698): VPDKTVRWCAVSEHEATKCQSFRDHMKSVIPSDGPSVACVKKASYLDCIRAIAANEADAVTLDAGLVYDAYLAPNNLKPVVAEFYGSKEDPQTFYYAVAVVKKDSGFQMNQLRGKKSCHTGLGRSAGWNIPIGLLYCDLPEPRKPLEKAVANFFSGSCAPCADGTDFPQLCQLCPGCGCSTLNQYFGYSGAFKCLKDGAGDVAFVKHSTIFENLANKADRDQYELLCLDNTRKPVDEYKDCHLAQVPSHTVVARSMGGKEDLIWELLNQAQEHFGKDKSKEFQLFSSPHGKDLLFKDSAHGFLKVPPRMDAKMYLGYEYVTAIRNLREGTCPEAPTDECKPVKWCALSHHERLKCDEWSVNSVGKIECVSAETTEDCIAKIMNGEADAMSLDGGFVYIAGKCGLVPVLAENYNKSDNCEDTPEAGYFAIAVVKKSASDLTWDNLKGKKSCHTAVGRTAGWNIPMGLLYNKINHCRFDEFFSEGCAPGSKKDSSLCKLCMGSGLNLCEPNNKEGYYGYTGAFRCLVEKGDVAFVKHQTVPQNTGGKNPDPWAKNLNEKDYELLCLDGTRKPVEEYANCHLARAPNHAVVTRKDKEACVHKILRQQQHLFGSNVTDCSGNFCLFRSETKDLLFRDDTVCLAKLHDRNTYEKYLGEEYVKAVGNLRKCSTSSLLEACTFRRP

For the compound `[In+3].[O-]c1cccc2cccnc12.[O-]c1cccc2cccnc12.[O-]c1cccc2cccnc12` [InQ3, Tris(8-Quinolinolato)indium(III)], the τ3 is reported as 4.7 ± 0.2 ns and the τ4 is reported as 13.8 ± 0.4 ns.
